Data taken from PMC5357904, “Vertebrate Cryptochromes are Vestigial Flavoproteins” (Scientific Reports, 2017).
Residue numbers refer to the chain shown, from its start.

Columns and labels:
Format in all cases: binding
DmCRY [1] = target: T1, DmCRY (Drosophila melanogaster, UniProt O77059, R237E/R298E); test: UV-visible absorption of purified protein ([…] nm), FAD occupancy; conditions: co-purified FAD
T1 construct: gene cry

DmCRY [2] = target: T2, DmCRY (Drosophila melanogaster, UniProt O77059, R298E/Q311E); test: as above; conditions: co-purified FAD
T2 construct: gene cry

SbCRY1a = target: T3, SbCRY1a (Sylvia borin, UniProt Q6ZZY0); test: UV-visible absorption titration of apo-protein into constant FAD, global fit
T3 construct: gene CRY1; full length 1-620, 36-aa N-terminal 6xHis extension (pRSET-A), E. coli SoluBL21, apo-protein
T3 sequence (Q6ZZY0 1-620): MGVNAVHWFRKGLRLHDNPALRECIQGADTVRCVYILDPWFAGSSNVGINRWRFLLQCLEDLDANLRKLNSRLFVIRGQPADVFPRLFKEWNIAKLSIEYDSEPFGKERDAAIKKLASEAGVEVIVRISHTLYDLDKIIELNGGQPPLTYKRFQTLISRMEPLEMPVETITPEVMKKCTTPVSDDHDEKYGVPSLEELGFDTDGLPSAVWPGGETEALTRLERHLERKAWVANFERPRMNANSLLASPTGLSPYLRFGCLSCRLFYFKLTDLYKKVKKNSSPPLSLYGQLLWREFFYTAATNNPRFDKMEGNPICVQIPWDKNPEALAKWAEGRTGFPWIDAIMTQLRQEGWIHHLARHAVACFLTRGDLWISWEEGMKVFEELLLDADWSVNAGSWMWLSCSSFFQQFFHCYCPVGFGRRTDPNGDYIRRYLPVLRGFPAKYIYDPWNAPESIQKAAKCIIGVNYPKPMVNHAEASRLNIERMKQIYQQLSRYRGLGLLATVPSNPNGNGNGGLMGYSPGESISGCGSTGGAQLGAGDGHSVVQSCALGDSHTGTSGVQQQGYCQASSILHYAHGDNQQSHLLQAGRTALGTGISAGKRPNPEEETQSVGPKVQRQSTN

DmCRY [3] = target: T4, DmCRY (Drosophila melanogaster, UniProt O77059, Q311E); test: UV-visible absorption of purified protein ([…] nm), FAD occupancy; conditions: co-purified FAD
T4 construct: gene cry

HsCRY2 [4] = target: T5, HsCRY2 (Homo sapiens, UniProt Q49AN0); test: UV-visible absorption titration of apo-protein into constant FAD, global fit
T5 construct: gene CRY2; full length 1-593, 39-aa N-terminal 6xHis extension (pRSET-A), E. coli SoluBL21, apo-protein
T5 sequence (Q49AN0 1-593): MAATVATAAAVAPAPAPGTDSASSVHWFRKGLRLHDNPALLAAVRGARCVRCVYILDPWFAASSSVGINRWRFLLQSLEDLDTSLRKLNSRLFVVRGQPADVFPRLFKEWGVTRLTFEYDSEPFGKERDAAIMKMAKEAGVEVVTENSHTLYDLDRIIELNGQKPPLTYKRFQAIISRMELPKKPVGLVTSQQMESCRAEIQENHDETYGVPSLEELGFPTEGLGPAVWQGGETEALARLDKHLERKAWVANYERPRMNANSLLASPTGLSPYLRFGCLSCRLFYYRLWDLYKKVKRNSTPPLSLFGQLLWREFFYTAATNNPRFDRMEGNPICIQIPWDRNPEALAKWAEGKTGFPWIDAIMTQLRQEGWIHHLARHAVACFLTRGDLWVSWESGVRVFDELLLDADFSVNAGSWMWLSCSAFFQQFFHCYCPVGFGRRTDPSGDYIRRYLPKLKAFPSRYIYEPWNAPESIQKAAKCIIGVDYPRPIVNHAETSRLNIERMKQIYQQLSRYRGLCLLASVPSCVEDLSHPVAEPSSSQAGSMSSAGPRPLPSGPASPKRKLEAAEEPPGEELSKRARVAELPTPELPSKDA

DmCRY [5] = target: T6, DmCRY (Drosophila melanogaster, UniProt O77059, R237E); test: UV-visible absorption of purified protein ([…] nm), FAD occupancy; conditions: co-purified FAD
T6 construct: gene cry

HsCRY2 [6] = target: T7, HsCRY2 (Homo sapiens, UniProt Q49AN0, H243R/S415N); test: UV-visible absorption after incubation in excess FAD and spin filtration; conditions: occupancy after incubation in excess FAD and removal of free FAD
T7 construct: gene CRY2; full length 1-593, 39-aa N-terminal 6xHis extension (pRSET-A), E. coli SoluBL21, apo-protein
T7 sequence (Q49AN0 1-593 H243R/S415N): T5 sequence (Q49AN0 1-593) with H243R, S415N

HsCRY1 = target: T8, HsCRY1 (Homo sapiens, UniProt Q16526); test: UV-visible absorption titration of apo-protein into constant FAD, global fit
T8 construct: gene CRY1; full length 1-586, 39-aa N-terminal 6xHis extension (pRSET-A), E. coli SoluBL21, apo-protein
T8 sequence (Q16526 1-586): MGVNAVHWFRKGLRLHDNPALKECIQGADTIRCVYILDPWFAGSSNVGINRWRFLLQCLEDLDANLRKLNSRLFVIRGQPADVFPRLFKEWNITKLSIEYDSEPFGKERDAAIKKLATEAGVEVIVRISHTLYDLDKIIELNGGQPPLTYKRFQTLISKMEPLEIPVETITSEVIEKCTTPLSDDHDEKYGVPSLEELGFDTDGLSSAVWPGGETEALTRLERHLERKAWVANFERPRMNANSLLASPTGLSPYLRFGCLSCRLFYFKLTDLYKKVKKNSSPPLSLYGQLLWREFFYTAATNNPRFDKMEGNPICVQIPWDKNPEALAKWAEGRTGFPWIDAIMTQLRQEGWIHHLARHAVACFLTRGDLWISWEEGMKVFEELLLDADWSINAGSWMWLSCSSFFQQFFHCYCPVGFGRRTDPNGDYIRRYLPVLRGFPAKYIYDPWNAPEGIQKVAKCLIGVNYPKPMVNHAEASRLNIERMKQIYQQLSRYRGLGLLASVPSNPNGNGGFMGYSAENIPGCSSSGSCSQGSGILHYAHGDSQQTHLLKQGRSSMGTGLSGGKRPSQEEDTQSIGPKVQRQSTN

DmCRY [7] = target: T9, DmCRY (Drosophila melanogaster, UniProt O77059, N419S); test: UV-visible absorption of purified protein ([…] nm), FAD occupancy; conditions: co-purified FAD
T9 construct: gene cry

DmCRY [8] = target: T10, DmCRY (Drosophila melanogaster, UniProt O77059, R298E); test: as above; conditions: co-purified FAD
T10 construct: gene cry

DmCRY [9] = target: T11, DmCRY (Drosophila melanogaster, UniProt O77059, R237H); test: as above; conditions: co-purified FAD
T11 construct: gene cry

DmCRY [10] = target: T12, DmCRY (Drosophila melanogaster, UniProt O77059); test: UV-visible absorption and visible CD of purified protein; conditions: co-purified oxidized FAD; near-stoichiometric
T12 construct: gene cry
T12 sequence (O77059 1-539): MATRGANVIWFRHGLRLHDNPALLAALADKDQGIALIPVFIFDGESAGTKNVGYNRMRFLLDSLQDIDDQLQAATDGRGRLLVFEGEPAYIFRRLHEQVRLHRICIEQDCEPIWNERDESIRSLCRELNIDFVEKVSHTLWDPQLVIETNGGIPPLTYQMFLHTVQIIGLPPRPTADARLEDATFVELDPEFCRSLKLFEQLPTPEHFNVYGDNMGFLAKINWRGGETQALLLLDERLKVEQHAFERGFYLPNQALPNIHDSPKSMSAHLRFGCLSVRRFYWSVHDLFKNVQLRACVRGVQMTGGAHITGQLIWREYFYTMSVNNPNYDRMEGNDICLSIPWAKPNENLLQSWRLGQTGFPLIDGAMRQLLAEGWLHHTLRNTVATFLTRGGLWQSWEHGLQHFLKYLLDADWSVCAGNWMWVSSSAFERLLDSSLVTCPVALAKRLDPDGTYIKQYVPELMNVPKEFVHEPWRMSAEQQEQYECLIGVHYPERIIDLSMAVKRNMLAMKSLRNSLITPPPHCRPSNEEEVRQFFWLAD

T11 sequence (O77059 1-539 R237H): as the sequence (O77059 1-539) above, with R237H counted along it
T6 sequence (O77059 1-539 R237E): as the sequence (O77059 1-539) above, with R237E counted along it
T4 sequence (O77059 1-539 Q311E): as the sequence (O77059 1-539) above, with Q311E counted along it
T2 sequence (O77059 1-539 R298E/Q311E): as the sequence (O77059 1-539) above, with R298E, Q311E counted along it
T10 sequence (O77059 1-539 R298E): as the sequence (O77059 1-539) above, with R298E counted along it
T1 sequence (O77059 1-539 R237E/R298E): as the sequence (O77059 1-539) above, with R237E, R298E counted along it
T9 sequence (O77059 1-539 N419S): as the sequence (O77059 1-539) above, with N419S counted along it

% reduction of FAD occupancy (DmCRY [1]): ~ 16%
% reduction of FAD occupancy (DmCRY [2]): ~ 58%
Kd (SbCRY1a): 97 µM
Kd (HsCRY2 [4]): 68 µM
% reduction of FAD occupancy (DmCRY [5]): ~ 12%
% bound FAD (HsCRY2 [6]): ~ 30%
Kd (HsCRY1): 16 µM
SMILES: Cc1cc2nc3c(=O)[nH]c(=O)nc-3n(C[C@H](O)[C@H](O)[C@H](O)COP(=O)(O)OP(=O)(O)OC[C@H]3O[C@@H](n4cnc5c(N)ncnc54)[C@H](O)[C@@H]3O)c2cc1C [FAD]
FAD occupancy (DmCRY [3]): single point mutations only had a minimal impact on FAD occupancy
FAD occupancy (DmCRY [7]): single point mutations only had a minimal impact on FAD occupancy
FAD occupancy (DmCRY [8]): single point mutations only had a minimal impact on FAD occupancy
FAD occupancy (DmCRY [9]): single point mutations only had a minimal impact on FAD occupancy
UV-visible absorption and visible CD of purified protein (DmCRY [10]): UV-visible absorption spectrum of DmCRY shows near-stoichiometric binding of oxidized FAD
